Measured values taken from ChEMBL document CHEMBL1201862, “PubChem BioAssay data set” (2004).
Values joined by “and” are separate entries in the source; they are usually repeats but may differ in a detail not shown here. Equal entries are not always repeated. Structures can show the parent of a compound that is named as a salt. Active and inactive are the calls of the source.

Tests used:
SUMO-activating enzyme = SUMO-activating enzyme (Homo sapiens, UniProt Q9UBT2); assay: inhibitors of in vitro SUMOylation cascade, primary screen, biochemical, HTRF, uHTS (AID 2006); format: protein-complex assay
[1] = biological target: T1, COUP transcription factor 2 (Homo sapiens, UniProt P24468); assay: Luminescence-based cell-based high throughput dose response assay to identify inhibitors of COUP-TFII (NR2F2).; format: functional;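 note: HEK293 cells transiently cotransfected with COUP-TFII expression vector and reporter; luciferase reporter luminescence driven by COUP-TFII from the pX2-168 reporter plasmid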
T1 sequence (P24468 whole entry): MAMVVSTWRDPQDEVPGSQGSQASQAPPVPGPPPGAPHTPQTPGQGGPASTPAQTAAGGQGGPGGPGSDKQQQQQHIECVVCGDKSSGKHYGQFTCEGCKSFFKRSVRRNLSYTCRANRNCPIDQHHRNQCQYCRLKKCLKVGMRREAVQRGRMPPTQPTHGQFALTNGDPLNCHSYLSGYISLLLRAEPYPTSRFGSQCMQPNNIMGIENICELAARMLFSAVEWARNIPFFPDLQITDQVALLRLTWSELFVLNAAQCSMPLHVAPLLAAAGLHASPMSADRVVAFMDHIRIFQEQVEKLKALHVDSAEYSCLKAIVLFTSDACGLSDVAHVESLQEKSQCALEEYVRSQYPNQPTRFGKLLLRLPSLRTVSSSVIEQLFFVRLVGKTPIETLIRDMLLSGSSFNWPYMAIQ

[2] = HeLa cell cytotoxicity, dose response, cytotoxicity control for MgcRacGAP inhibitor project (AID 624300); format: functional
[3] = biological target: Intestinal-type alkaline phosphatase (Mus musculus, UniProt P24822); assay: PubChem AID 488874; format: functional
Streptokinase A = biological target: T2, Streptokinase A (Streptococcus pyogenes serotype M1, UniProt P10520); assay: S. pyogenes streptokinase expression inhibitors, potency, dose response, plasminogen activation absorbance, OD405 (AID 1914); format: functional, Streptococcus pyogenes M1 GAS;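 note: secreted streptokinase activity via plasminogen activation per viability signal from cell pellet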
T2 sequence (P10520 whole entry): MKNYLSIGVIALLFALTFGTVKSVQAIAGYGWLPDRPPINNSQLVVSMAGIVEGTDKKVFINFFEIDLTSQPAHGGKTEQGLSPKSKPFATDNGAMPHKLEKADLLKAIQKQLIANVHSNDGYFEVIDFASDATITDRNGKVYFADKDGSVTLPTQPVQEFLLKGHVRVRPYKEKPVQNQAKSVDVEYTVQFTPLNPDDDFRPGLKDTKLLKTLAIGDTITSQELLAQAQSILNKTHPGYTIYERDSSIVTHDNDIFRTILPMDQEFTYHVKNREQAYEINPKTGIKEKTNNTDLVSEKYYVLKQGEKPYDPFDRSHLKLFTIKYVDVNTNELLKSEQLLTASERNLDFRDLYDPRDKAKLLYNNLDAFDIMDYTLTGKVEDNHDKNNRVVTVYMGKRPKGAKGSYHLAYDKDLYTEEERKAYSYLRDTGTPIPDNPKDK

[4] = biological target: T3, RNA-binding protein pos-1 (Caenorhabditis elegans, UniProt G5EF15); assay: inhibitors of POS-1/mex-3 RNA binding, dose response, biochemical, fluorescence polarization (AID 1964);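 note: purified POS-1 fused to maltose binding protein made in E. coli; potency of compounds blocking POS-1 binding to fluorescent RNA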
T3 sequence (G5EF15 whole entry): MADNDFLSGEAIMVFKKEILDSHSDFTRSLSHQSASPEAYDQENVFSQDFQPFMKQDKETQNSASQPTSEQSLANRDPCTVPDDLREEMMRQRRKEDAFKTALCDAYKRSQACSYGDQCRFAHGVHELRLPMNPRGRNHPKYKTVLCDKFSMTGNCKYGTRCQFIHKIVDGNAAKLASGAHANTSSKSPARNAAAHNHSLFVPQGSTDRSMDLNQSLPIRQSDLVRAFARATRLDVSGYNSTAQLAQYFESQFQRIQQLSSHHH

14-3-3 protein gamma = 14-3-3 protein gamma (Homo sapiens, UniProt P61981); assay: modulators of 14-3-3 gamma client binding – dose response (AID 711); format: functional
[5] = biological target: Vascular endothelial growth factor receptor 2 (Homo sapiens, UniProt P35968); format: functional
[6] = biological target: Phosphorylase b kinase gamma catalytic chain, liver/testis isoform (Homo sapiens, UniProt P15735); format: functional;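 note: PHKG2 measured as one member of a kinome-wide kinase panel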
[7] = biological target: Non-receptor tyrosine-protein kinase TYK2 (Homo sapiens, UniProt P29597); format: functional
[8] = biological target: Tyrosine-protein kinase Lck (Homo sapiens, UniProt P06239); format: functional;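 note: lck was assayed as one member of a kinase panel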
[9] = biological target: cAMP-dependent protein kinase catalytic subunit alpha (Homo sapiens, UniProt P17612); format: functional
[10] = biological target: Calcium/calmodulin-dependent protein kinase type II subunit alpha (Homo sapiens, UniProt Q9UQM7); assay: Navigating the Kinome. Panel member name: CAMK2A; format: functional
[11] = biological target: Serine/threonine-protein kinase PLK3 (Homo sapiens, UniProt Q9H4B4); format: functional
[12] = biological target: Receptor-type tyrosine-protein kinase FLT3 (Homo sapiens, UniProt P36888); format: functional;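 note: FLT3 was tested as one member of a kinome-wide kinase panel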
[13] = biological target: Dual specificity mitogen-activated protein kinase kinase 2 (Homo sapiens, UniProt P36507); assay: Navigating the Kinome. Panel member name: MAP2K2; format: functional
[14] = biological target: cAMP-dependent protein kinase catalytic subunit PRKX (Homo sapiens, UniProt P51817); format: functional
[15] = biological target: Maternal embryonic leucine zipper kinase (Homo sapiens, UniProt Q14680); format: functional
[16] = biological target: Receptor tyrosine-protein kinase erbB-4 (Homo sapiens, UniProt Q15303); format: functional;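 note: ERBB4 member of a kinome-wide kinase profiling panel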
[17] = biological target: Mast/stem cell growth factor receptor Kit (Homo sapiens, UniProt P10721); format: functional;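 note: KIT entry within a kinase panel assay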
[18] = biological target: Ribosomal protein S6 kinase alpha-3 (Homo sapiens, UniProt P51812); format: functional;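 note: measured within a kinome-wide profiling panel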
Aurora kinase B = Aurora kinase B (Homo sapiens, UniProt Q96GD4); format: functional
[19] = biological target: Serine/threonine-protein kinase D3 (Homo sapiens, UniProt O94806); format: functional;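 note: determined within a kinase panel screen, with PRKCN as the panel member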
[20] = biological target: Receptor tyrosine-protein kinase erbB-2 (Homo sapiens, UniProt P04626); assay: Navigating the Kinome. Panel member name: ERBB2; format: functional
[21] = biological target: Mitogen-activated protein kinase 1 (Homo sapiens, UniProt P28482); format: functional
[22] = biological target: Platelet-derived growth factor receptor alpha (Homo sapiens, UniProt P16234); assay: Navigating the Kinome. Panel member name: PDGFRA; format: functional
[23] = biological target: Serine/threonine-protein kinase pim-3 (Homo sapiens, UniProt Q86V86); format: functional;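 note: value obtained as one member of a broad kinase panel profiling effort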
[24] = biological target: Tyrosine-protein kinase JAK2 (Homo sapiens, UniProt O60674); format: functional;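 note: JAK2 tested as one member of a kinase panel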
[25] = biological target: Serine/threonine-protein kinase Nek4 (Homo sapiens, UniProt P51957); format: functional
[26] = biological target: Vascular endothelial growth factor receptor 3 (Homo sapiens, UniProt P35916); format: functional;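 note: value from a kinome-wide profiling panel, with FLT4 as the panel member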

Platelet-derived growth factor receptor alpha, sequence (P16234 whole entry): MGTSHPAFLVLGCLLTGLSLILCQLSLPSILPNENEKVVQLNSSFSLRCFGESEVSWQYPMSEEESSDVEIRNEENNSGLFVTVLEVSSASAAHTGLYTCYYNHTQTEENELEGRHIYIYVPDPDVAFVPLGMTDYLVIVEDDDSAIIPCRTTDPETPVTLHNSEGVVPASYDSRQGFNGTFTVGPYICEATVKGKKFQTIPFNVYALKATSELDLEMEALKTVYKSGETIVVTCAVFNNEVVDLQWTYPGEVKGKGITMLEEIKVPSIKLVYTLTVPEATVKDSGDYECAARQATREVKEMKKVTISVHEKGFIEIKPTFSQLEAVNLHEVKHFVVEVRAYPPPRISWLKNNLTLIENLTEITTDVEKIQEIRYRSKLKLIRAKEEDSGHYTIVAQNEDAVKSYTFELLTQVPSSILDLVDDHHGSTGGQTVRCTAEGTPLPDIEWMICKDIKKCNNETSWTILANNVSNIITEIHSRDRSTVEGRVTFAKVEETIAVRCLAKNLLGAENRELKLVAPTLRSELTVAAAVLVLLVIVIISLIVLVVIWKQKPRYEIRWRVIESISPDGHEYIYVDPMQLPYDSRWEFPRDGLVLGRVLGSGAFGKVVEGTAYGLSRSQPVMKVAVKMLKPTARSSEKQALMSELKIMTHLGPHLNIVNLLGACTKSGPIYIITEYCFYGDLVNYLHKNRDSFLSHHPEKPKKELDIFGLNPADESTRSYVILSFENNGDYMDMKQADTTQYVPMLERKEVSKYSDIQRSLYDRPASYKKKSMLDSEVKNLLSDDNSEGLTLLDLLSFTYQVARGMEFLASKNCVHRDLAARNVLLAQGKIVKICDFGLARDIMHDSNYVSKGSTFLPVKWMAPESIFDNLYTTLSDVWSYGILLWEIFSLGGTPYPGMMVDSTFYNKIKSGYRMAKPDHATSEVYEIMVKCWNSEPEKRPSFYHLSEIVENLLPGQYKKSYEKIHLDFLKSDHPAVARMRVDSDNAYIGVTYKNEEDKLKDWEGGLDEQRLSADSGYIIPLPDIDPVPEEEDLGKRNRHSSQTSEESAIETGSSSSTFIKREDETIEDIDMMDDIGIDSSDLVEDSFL
Receptor tyrosine-protein kinase erbB-4, sequence (Q15303 whole entry): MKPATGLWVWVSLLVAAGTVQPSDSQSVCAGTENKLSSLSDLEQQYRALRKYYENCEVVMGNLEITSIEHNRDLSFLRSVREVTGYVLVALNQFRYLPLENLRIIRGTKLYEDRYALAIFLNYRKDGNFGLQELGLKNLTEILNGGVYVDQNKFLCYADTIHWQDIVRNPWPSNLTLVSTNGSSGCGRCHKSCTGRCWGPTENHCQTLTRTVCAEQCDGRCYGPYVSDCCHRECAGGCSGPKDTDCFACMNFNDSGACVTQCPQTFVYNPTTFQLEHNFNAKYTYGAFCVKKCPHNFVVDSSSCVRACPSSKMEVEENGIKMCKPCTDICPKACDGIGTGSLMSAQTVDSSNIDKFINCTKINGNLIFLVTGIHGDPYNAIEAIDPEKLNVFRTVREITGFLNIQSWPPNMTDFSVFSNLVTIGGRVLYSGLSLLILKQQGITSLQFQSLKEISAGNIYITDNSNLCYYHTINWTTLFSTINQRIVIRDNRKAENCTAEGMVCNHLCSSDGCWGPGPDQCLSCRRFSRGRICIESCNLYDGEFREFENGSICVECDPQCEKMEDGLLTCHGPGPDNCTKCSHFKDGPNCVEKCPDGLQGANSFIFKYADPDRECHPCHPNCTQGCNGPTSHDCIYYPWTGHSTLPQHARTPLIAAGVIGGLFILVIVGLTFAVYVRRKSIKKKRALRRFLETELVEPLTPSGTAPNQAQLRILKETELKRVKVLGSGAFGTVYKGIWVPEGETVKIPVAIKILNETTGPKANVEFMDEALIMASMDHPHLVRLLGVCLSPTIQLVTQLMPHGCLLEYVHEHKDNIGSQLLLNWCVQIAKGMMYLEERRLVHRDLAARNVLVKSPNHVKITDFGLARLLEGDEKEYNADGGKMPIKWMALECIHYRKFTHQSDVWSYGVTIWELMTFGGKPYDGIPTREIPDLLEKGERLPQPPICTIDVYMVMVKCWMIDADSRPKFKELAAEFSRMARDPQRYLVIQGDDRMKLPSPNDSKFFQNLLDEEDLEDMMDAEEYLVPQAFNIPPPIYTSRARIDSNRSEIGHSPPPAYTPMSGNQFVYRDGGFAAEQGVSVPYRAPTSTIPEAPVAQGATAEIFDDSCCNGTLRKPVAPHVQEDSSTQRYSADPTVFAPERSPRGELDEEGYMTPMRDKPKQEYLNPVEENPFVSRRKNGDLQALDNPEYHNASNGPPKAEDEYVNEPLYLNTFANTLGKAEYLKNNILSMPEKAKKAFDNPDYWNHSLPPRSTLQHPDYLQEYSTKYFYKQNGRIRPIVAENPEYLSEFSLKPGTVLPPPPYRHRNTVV
cAMP-dependent protein kinase catalytic subunit PRKX, sequence (P51817 whole entry): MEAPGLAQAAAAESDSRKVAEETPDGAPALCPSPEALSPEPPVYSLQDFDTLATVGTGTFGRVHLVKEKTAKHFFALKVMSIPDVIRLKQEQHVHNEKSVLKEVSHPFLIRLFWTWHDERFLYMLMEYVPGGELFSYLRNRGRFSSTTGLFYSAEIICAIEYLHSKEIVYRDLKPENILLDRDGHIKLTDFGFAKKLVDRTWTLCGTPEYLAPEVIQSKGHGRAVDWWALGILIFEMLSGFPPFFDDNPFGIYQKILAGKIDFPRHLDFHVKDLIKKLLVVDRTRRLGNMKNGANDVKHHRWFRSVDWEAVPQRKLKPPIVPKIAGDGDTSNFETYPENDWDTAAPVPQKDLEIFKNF
Serine/threonine-protein kinase D3, sequence (O94806 whole entry): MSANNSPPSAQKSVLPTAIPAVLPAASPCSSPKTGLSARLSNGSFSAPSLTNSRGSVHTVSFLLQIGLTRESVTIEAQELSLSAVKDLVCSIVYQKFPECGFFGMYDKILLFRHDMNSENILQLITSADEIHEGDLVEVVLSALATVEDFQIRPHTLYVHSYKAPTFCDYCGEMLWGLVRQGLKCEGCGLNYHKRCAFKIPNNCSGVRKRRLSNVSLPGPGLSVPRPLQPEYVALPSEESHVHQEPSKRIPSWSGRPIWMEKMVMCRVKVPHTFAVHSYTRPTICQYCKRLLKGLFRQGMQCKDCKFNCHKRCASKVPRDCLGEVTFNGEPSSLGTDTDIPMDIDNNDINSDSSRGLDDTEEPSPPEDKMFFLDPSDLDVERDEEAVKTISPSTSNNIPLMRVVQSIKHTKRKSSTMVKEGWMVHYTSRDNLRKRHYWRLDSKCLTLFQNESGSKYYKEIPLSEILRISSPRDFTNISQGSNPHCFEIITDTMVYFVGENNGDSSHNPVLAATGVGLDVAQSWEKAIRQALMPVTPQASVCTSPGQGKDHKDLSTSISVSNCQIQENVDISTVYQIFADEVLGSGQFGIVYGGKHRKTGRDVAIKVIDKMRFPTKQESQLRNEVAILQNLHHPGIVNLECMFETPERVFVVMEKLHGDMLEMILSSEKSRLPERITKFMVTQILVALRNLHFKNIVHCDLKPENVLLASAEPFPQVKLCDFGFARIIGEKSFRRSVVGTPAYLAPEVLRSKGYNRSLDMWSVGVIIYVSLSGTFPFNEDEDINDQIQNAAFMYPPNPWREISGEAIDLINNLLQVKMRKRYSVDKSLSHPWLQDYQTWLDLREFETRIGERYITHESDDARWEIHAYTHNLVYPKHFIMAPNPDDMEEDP
SUMO-activating enzyme, sequence (Q9UBE0 whole entry): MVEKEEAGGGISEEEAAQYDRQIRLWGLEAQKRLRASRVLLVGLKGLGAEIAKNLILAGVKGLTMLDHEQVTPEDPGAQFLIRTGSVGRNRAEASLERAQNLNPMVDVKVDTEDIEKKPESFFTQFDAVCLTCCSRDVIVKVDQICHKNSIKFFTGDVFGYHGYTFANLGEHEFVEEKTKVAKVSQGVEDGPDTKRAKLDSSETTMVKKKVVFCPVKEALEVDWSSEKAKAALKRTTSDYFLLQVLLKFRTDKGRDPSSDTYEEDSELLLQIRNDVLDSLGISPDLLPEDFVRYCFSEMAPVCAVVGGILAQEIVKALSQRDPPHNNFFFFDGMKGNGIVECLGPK
SUMO-activating enzyme, sequence (Q9UBT2 whole entry): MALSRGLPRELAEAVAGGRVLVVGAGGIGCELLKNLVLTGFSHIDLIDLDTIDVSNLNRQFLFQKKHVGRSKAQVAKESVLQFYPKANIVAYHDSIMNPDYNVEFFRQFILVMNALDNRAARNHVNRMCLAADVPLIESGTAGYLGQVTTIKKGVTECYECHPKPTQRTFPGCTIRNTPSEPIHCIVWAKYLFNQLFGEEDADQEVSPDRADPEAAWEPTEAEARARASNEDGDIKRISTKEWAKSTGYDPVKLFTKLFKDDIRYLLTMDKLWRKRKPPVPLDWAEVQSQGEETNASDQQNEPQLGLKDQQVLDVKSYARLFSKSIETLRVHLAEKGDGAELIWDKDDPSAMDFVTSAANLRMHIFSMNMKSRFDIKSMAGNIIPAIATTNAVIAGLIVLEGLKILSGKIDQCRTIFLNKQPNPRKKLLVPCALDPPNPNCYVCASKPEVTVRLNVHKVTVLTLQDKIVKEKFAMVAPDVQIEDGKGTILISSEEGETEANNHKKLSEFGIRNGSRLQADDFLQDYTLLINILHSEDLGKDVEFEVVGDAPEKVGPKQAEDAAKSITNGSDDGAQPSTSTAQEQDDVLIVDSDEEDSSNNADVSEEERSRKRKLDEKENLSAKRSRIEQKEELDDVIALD
Phosphorylase b kinase gamma catalytic chain, liver/testis isoform, sequence (P15735 whole entry, canonical isoform): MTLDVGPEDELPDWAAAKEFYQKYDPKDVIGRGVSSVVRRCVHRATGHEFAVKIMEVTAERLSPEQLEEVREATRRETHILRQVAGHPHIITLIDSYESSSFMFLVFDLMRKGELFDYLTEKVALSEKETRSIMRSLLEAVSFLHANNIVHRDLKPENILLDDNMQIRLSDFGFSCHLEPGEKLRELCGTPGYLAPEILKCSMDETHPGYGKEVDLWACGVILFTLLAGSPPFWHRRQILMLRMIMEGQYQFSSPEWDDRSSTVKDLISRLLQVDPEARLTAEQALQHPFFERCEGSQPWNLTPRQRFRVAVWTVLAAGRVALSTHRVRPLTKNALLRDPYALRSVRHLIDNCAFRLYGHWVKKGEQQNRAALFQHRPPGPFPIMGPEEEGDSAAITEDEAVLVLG

CCC(C)n1c(NC(=O)c2ccccc2)c(C#N)c2nc3ccccc3nc21 (stereo not given)
IC50 (SUMO-activating enzyme): 8.4 µM (active)

CCN1/C(=C\c2ccc3ccccc3[n+]2CC)Sc2cc(C)ccc21
IC50 [1]: 2.75 µM (active)
CC50 [2]: 14.4 µM (active)
IC50 [3]: 20.8 µM (active)

CCCCCCCCCCOC(=O)C[n+]1c(COc2ccc(C)cc2)n(C)c2ccccc21
EC50 (Streptokinase A): > 150 µM (not active)

CC[C@@H](CO)NC(=O)[C@@H]1C=C2c3cccc4c3c(cn4C)C[C@H]2N(C)C1 [METHYSERGIDE MALEATE]
EC50 [4]: 10.3 µM (active) and 14.3 µM (active)
IC50 (14-3-3 protein gamma): > 50 µM (not active)

CN1CCN(c2nc(C3=C(c4c[nH]c5ccccc45)C(=O)NC3=O)c3ccccc3n2)CC1 [SOTRASTAURIN]
Ki [5]: 0.398 µM (active)
Ki [6]: > 5.01 µM (inactive)
Ki [7]: > 2 µM (inactive)
Ki [8]: > 3.98 µM (inactive)
Ki [9]: > 1.26 µM (inactive)
Ki [10]: 3.16 µM (active)
Ki [11]: > 7.94 µM (inactive)
Ki [12]: > 1.58 µM (inactive)
Ki [13]: > 3.98 µM (inactive)
Ki [14]: > 2.51 µM (inactive)
Ki [15]: > 1.58 µM (inactive)
Ki [16]: > 3.98 µM (inactive)
Ki [17]: > 1.26 µM (inactive)
Ki [18]: 0.126 µM (active)
Ki (Aurora kinase B): > 5.01 µM (inactive)
Ki [19]: > 3.16 µM (inactive)
Ki [20]: 0.794 µM (active)
Ki [21]: > 7.94 µM (inactive)
Ki [22]: > 2.51 µM (inactive)
Ki [23]: 0.316 µM (active)
Ki [24]: > 2.51 µM (inactive)
Ki [25]: > 6.31 µM (inactive)
Ki [26]: 0.316 µM (active)
